Test results: paper PMC2933276 (Nature structural & molecular biology, 2010)
Values belong to the molecule of their own block, whether it stands above or below them.

Tests used:
[1] = target: T1, S. pombe Dcp2 regulatory domain (residues 1-94) (Schizosaccharomyces pombe, UniProt O13828); experiment: […]-HSQC NMR titration; assay type: binding
T1 sequence (O13828 1-94): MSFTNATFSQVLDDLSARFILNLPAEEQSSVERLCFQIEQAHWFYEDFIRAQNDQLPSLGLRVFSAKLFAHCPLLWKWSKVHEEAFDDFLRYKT

[2] = target: T2, S. pombe Dcp2 catalytic domain (residues 95-243) (Schizosaccharomyces pombe, UniProt O13828); experiment: […]-HSQC NMR titration; assay type: binding
T2 sequence (O13828 95-243): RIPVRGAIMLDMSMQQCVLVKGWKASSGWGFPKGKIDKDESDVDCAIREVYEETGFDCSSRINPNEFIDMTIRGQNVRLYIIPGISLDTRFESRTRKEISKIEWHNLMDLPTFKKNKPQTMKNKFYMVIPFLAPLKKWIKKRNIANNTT

[3] = target: T3, S. pombe Dcp1-Dcp2 complex (Dcp2 1-243, Dcp1 1-127; D1D2) (Schizosaccharomyces pombe, UniProt O13828); experiment: SAXS, ligand-induced compaction; assay type: binding; settings: 10 mM m7GpppA; pH 7.0, 150 mM NaCl, 50 mM HEPES, 2 mM DTT
T3 sequence (O13828 1-243): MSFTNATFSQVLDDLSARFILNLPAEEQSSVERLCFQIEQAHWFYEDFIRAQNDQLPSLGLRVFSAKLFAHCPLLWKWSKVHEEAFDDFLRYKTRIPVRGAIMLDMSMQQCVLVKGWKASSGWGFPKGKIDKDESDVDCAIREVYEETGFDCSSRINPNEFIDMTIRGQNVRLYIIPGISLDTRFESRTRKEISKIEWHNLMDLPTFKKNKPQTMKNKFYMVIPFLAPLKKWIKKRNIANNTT
T3 sequence (Q9P805 1-127 partner): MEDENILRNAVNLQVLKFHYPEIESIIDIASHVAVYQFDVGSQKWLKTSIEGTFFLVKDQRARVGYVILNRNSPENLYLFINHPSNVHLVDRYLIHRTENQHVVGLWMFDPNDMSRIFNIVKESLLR

[4] = target: T4, S. pombe Dcp2 (spDcp2) 1–243 (S. pombe, UniProt O13828 1-243); experiment: SEC
T4 sequence: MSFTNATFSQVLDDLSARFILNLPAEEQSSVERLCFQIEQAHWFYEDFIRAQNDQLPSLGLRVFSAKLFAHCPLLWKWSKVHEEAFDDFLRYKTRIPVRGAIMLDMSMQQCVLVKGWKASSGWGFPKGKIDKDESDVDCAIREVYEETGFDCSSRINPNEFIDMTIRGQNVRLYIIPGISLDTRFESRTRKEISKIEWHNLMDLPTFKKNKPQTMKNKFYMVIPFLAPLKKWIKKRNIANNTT

[5] = target: S. pombe Dcp2 1–243 R167Q (S. pombe, UniProt O13828 1-243, R167Q); experiment: SEC
S. pombe Dcp2 1–243 W43A = S. pombe Dcp2 1–243 W43A (S. pombe, UniProt O13828 1-243, W43A); experiment: SEC

Molecule: Nc1nc2c(ncn2[C@@H]2O[C@H](COP(=O)(O)OP(=O)(O)O)[C@@H](O)[C@H]2O)c(=O)[nH]1 [GDP]
- Kd [1]: ~40 mM

Molecule: C[n+]1cn([C@@H]2O[C@H](COP(=O)(O)OP(=O)(O)OP(=O)(O)OC[C@H]3O[C@@H](n4cnc5c(N)ncnc54)[C@H](O)[C@@H]3O)[C@@H](O)[C@H]2O)c2nc(N)[nH]c(=O)c21 [m^7GpppA]
- SAXS, ligand-induced compaction [3]: reveals a compaction in the presence of cap-analog m^7GpppA that is small but reproducible

Now from value to molecule:

- Kd [2]: 12 mM
- Kd [1]: ~12 mM
Molecule: C[n+]1cn([C@@H]2O[C@H](COP(=O)(O)OP(=O)(O)O)[C@@H](O)[C@H]2O)c2nc(N)[nH]c(=O)c21 [m^7GDP]

- binding result [4]: binds
- binding result [5]: binds
- binding result (S. pombe Dcp2 1–243 W43A): binds
B1: S. pombe Dcp1 1–127 (natural protein)
chain: MEDENILRNAVNLQVLKFHYPEIESIIDIASHVAVYQFDVGSQKWLKTSIEGTFFLVKDQRARVGYVILNRNSPENLYLFINHPSNVHLVDRYLIHRTENQHVVGLWMFDPNDMSRIFNIVKESLLR
